In data set [1] the test system is Plasmodium berghei. The experiment in a line: Antiplasmodial activity against Plasmodium berghei infected in NMRI mouse assessed as reduction in parasitemia at 3 mg/kg, po administered at 4, 24, 48, 72 hrs post infection measured on day 4 by Peter's test relative to control. It counts as functional. Also on record: scale not given: the % may be the effect or the level left.

Data set [2] deals with Plasmodium falciparum. Kind of data set: Effect on female gamete formation in transgenic GFP-fused Plasmodium falciparum NF54 mature stage-5 gametocytes at 1 uM after 72 hrs under reduced oxygen tension by Mitotracker Red CMH2XRos staining based confocal microscopic method. The data set is classed as functional.
Data set [3] in a line: Selectivity index, ratio of IC50 for human HepG2 cells to IC50 for chloroquine-sensitive asexual blood stages of Plasmodium falciparum 3D7. It counts as toxicity. Particulars: read-out: Ratio IC50.
Data set [4] concerns Plasmodium berghei. Kind of data set: Antiplasmodial activity against Plasmodium berghei infected in NMRI mouse assessed as mean survival time at 30 mg/kg, po administered at 4, 24, 48, 72 hrs post infection by Peter's test (reference value: 6 to 7 day). The data set is classed as functional.
Data set [5] relates to Plasmodium falciparum. Kind of data set: Effect on male gamete formation in transgenic GFP-fused Plasmodium falciparum NF54 mature stage-5 gametocytes at 1 uM after 72 hrs under reduced oxygen tension by Mitotracker Red CMH2XRos staining based confocal microscopic method. It counts as functional.
In data set [6] the test system is Plasmodium berghei. The experiment in a line: Antiplasmodial activity against Plasmodium berghei infected in NMRI mouse assessed as parasite free mouse at 3 mg/kg, po administered at 4, 24, 48, 72 hrs post infection measured on day 4 by Peter's test. The data set is classed as functional, organism-based.
For data set [7], the system named is Plasmodium falciparum. The experiment in a line: Antiplasmodial activity against chloroquine-sensitive asexual blood stages of Plasmodium falciparum 3D7 after 72 hrs by HRP2-based ELISA. The data set is classed as functional. Particulars: 3D7, 72 h. For orientation: In an ELISA, binding on a coated surface is turned into a signal by an enzyme label.
Data set [8] has as its system Plasmodium berghei. The experiment in a line: Antiplasmodial activity against Plasmodium berghei infected in NMRI mouse assessed as reduction in parasitemia at 10 mg/kg, po administered at 4, 24, 48, 72 hrs post infection measured on day 4 by Peter's test relative to control. Further details: scale not given: the % may be the effect or the level left. It counts as functional.

The test system of data set [9] is Plasmodium berghei. Kind of data set: Antiplasmodial activity against Plasmodium berghei infected in NMRI mouse assessed as mean survival time at 50 mg/kg, ip administered at 4, 24, 48, 72 hrs post infection by Peter's test (reference value: 6 to 7 day). The data set is classed as functional.
The subject of data set [10] is Plasmodium berghei. The experiment in a line: Antiplasmodial activity against Plasmodium berghei infected in NMRI mouse assessed as reduction in parasitemia at 30 mg/kg, po administered at 4, 24, 48, 72 hrs post infection measured on day 4 by Peter's test relative to control. It counts as functional. Also on record: scale not given: the % may be the effect or the level left.

In data set [11] the target is Voltage-gated inwardly rectifying potassium channel KCNH2 (Homo sapiens, UniProt Q12809). Kind of data set: Inhibition of human ERG by fluorescence polarization assay. In general terms: Fluorescence polarisation rises when a labelled molecule tumbles more slowly, as on binding a larger partner.
Sequence of Voltage-gated inwardly rectifying potassium channel KCNH2 (Q12809 whole entry): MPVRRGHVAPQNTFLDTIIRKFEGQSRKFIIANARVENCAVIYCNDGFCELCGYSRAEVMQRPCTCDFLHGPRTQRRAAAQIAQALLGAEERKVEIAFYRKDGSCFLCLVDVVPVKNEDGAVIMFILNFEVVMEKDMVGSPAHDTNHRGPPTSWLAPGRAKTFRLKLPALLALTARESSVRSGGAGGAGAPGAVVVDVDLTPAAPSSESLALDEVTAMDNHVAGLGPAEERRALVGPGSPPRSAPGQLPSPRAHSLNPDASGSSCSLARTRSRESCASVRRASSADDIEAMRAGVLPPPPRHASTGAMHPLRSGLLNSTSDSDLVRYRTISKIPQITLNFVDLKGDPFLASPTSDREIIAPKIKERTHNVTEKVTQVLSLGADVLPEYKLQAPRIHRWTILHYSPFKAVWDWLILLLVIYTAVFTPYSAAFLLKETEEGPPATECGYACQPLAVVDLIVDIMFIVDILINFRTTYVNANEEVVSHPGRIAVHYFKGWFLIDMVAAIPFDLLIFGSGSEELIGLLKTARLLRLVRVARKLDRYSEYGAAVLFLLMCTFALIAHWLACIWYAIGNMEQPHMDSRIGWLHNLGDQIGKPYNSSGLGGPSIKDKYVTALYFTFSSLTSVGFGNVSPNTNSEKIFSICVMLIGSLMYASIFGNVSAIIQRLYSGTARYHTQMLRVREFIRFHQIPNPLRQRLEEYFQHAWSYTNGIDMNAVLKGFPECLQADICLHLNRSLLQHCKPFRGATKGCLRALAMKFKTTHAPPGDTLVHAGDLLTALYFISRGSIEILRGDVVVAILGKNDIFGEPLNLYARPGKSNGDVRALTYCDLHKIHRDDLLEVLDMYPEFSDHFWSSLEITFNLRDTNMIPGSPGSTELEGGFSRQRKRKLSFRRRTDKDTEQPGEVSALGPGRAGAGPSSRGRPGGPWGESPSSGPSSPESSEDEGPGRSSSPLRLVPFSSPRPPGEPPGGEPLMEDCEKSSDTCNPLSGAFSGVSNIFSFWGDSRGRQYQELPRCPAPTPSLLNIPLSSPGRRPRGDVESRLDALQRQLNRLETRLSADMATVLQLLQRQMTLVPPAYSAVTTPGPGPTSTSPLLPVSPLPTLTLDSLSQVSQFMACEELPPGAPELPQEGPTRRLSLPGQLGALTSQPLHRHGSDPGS
The test system of data set [12] is Plasmodium berghei. Kind of data set: Antiplasmodial activity against Plasmodium berghei infected in NMRI mouse assessed as parasite free mouse at 10 mg/kg, po administered at 4, 24, 48, 72 hrs post infection measured on day 4 by Peter's test. It counts as functional, organism-based.
Data set [13] concerns Plasmodium falciparum. Kind of data set: Gametocytocidal activity against transgenic GFP-fused Plasmodium falciparum NF54 early stage gametocytes after 72 hrs by Mitotracker Red CMH2XRos staining based confocal microscopic method. The data set is classed as functional. The following applies: NF54, 72 h.
Data set [14] concerns Plasmodium falciparum. The experiment in a line: Gametocytocidal activity against transgenic GFP-fused Plasmodium falciparum NF54 […] stage gametocytes after 72 hrs by Mitotracker Red CMH2XRos staining based confocal microscopic method. It counts as functional. Particulars: NF54, 72 h.
The subject of data set [15] is Plasmodium berghei. Kind of data set: Antiplasmodial activity against Plasmodium berghei infected in NMRI mouse assessed as reduction in parasitemia at 50 mg/kg, po administered at 4, 24, 48, 72 hrs post infection measured on day 4 post infection by Peter's test relative to control. Also on record: scale not given: the % may be the effect or the level left. The data set is classed as functional.

For data set [16], the system named is Plasmodium berghei. Kind of data set: Antiplasmodial activity against Plasmodium berghei infected in NMRI mouse assessed as reduction in parasitemia at 50 mg/kg, ip administered at 4, 24, 48, 72 hrs post infection measured on day 4 post infection by Peter's test relative to control. The data set is classed as functional. Further details: scale not given: the % may be the effect or the level left.

The subject of data set [17] is Plasmodium berghei. The experiment in a line: […] activity against GFP-fused Plasmodium berghei liver stage parasites infected in human HepG2-A16-CD81-EGFP cells after 48 hrs by luciferase reporter gene assay. The data set is classed as functional.
For data set [18], the system named is Plasmodium berghei. Kind of data set: Antiplasmodial activity against Plasmodium berghei infected in NMRI mouse assessed as mean survival time at 50 mg/kg, po administered at 4, 24, 48, 72 hrs post infection by Peter's test (reference value: 6 to 7 day). The data set is classed as functional.
The test system of data set [19] is HepG2. The experiment in a line: Cytotoxicity against human HepG2 cells by CellTiterGlo assay. It counts as cell-based. A general note: ATP-based viability assays read luminescence as a measure of living cells.
In data set [20] the test system is Plasmodium berghei. The experiment in a line: Antiplasmodial activity against Plasmodium berghei infected in NMRI mouse assessed as mean survival time at 10 mg/kg, po administered at 4, 24, 48, 72 hrs post infection measured on day 4 by Peter's test (reference value: 6 to 7 day). It counts as functional.
The subject of data set [21] is Plasmodium berghei. The experiment in a line: Antiplasmodial activity against Plasmodium berghei infected in NMRI mouse assessed as parasite-free mouse at 30 mg/kg, po administered at 4, 24, 48, 72 hrs post infection measured on day 30 by Peter's test. The data set is classed as functional, organism-based.
The test system of data set [22] is Plasmodium falciparum. Kind of data set: Antiplasmodial activity against multidrug-resistant asexual blood stages of Plasmodium falciparum Dd2 after 72 hrs by HRP2-based ELISA. The data set is classed as functional. Particulars: Dd2, 72 h.
Data set [23] relates to Mus musculus. Kind of data set: Toxicity in NMRI mouse infected with Plasmodium berghei assessed as overt toxicity at 50 mg/kg, ip administered at 4, 24, 48, 72 hrs post infection. The data set is classed as organism-based. Particulars: in vivo.
A short description of data set [24]: Solubility of compound in phosphate buffer at pH 2.5 after 1 hr by HPLC analysis. Particulars: pH 2.5, 1 h. The data set is classed as physicochemical.
A short description of data set [25]: Drug degradation in Tween 20/ethanol/phosphate buffer at 1 mg/ml at pH 7.5 after 24 hrs by HPLC analysis.
Data set [26] can be described thus: Chemical stability of compound in tween 20/ethanol/phosphate buffer at 1 mg/ml at pH 7.5 assessed as compound remaining after 6 hrs by HPLC analysis. The data set is classed as physicochemical. The following applies: read-out: Stability.
Data set [27] can be described thus: Solubility of compound in phosphate buffer at pH 7.5 after 1 hr by HPLC analysis. The data set is classed as physicochemical. The following applies: pH 7.5, 1 h.
For data set [28], the system named is Plasmodium berghei. The experiment in a line: Antiplasmodial activity against Plasmodium berghei infected in NMRI mouse assessed as mean survival time at 3 mg/kg, po administered at 4, 24, 48, 72 hrs post infection measured on day 4 by Peter's test (reference value: 6 to 7 day). It counts as functional.

Calls of active or inactive are those of the source. The rule behind the calls is not given here.

For `CCN(CC)Cc1cc(/C=N/N=C(\N)CC(O)c2cc3c(F)cc(F)cc3c3cc(C(F)(F)F)ccc23)ccc1O` (centres undefined), the Activity in data set [1] is reported as under 40%; in [8], 99.4%; in data set [10], 99.9%; in data set [15] it was 99.9%; in data set [16] it was 99.8%; in data set [23] it was “Non-Toxic”. Moreover, the outcome in data set [2], in data set [5], in data set [6], in [12] and in data set [21] was inactive. Besides, the selectivity ratio in data set [3] came out at 3440. Further, the MST in data set [4] amounted to 28.3 days; in data set [9] it was 30 days; in data set [18], 29.7 days; in [20], 10 days. Also, the IC50 in data set [7] was found to be 3.9 nM; in data set [11], 390 nM; in data set [13], 218 nM; in data set [14] it was 110 nM; in data set [17] it was 5.2 µM; in data set [19], 13.4 µM. Also, the IC50 in [22] is 6.1 nM.

Turning to `N/C(CC(O)c1cc2c(F)cc(F)cc2c2cc(C(F)(F)F)ccc12)=N\N=C\c1ccc(F)cc1` (centres undefined), the solubility entry in data set [24] and in data set [27] was “Insoluble” each time. For the same compound, the Activity is on record as 78% in data set [1]; 99.5% in data set [8]; 99.4% in [10]; 99.9% in [15]; “Non-Toxic” in [23]. For the same compound, the outcome in data set [2], in [5], in data set [6] and in [21] was inactive. Besides, the MST was 25.7 days in data set [4], 7 days in data set [28], 22 days in [18] and 24.7 days in [20]. Also, the Drug degradation in data set [25] came to 31%. Further, the IC50 in data set [7] came to 2.3 nM; in data set [13] it was 200 nM; in [14] it was 66 nM; in data set [17] it was 6.9 µM; in data set [19] it was 27.7 µM; in data set [22], 2.9 nM. Further, the remaining at 6 h, 1 mg/ml in data set [26] is over 95%.

Compound `CCCCN(CCCC)CC(O)c1cc(Cl)cc2c1-c1ccc(Cl)cc1/C2=C/c1ccc(Cl)cc1` (centres undefined) [LUMEFANTRINE] showed a concentration for half-maximal inhibition (IC50) in data set [11] of 377 nM.

With `N/C(CC(O)c1cc2c(Cl)cc(Cl)cc2c2cc(C(F)(F)F)ccc12)=N\N=C\c1ccc(F)cc1` (centres undefined), the Activity is given as under 40% in data set [1]; 80% in data set [8]; 99.4% in [10]; 99.9% in [15]; 99.9% in data set [16]; “Non-Toxic” in [23]. In addition, the result in [2], in [5], in [6], in [12] and in [21] was inactive. For the same compound, the selectivity ratio in data set [3] amounted to 24300. Moreover, the MST in data set [4] is 13.7 days; in [9], 25.3 days; in [18], 25.3 days; in data set [20], 5 days. For the same compound, the IC50 was found to be 1.8 nM in data set [7]; 31 nM in data set [13]; 36 nM in [14]; 13 µM in [17]; 43.8 µM in data set [19]; 2.5 nM in data set [22].

The IC50 is the midpoint of a concentration-inhibition curve.

(Values after ChEMBL document CHEMBL4011644, “3-Hydroxy-N'-arylidenepropanehydrazonamides with Halo-Substituted Phenanthrene Scaffolds Cure P. berghei Infected Mice When Administered Perorally” (J Med Chem, 2017).)
